Experimental data as given in paper PMC7070898 (Clinical and Translational Science, 2019).

Assays:
[1] = test system: interferon‐accelerated systemic lupus erythematosus; conditions: mouse model of interferon‐accelerated systemic lupus erythematosus ref 8; cited from earlier work
[2] = Holter ECG, concentration-QTcF, by-time point and categorical analysis; assay type: in vivo, human; conditions: for mean ΔΔQTcF, by‐time point analysis: 100 mg dose group (n = 6); for Predicted mean ΔΔQTcF: linear mixed model; for Cmax: human, in vivo, Geometric mean Cmax
[3] = test system: B cell and basophil activation; conditions: human cellular assays ref 8; cited from earlier work
[4] = test system: experimental autoimmune encephalomyelitis; conditions: B cell‐dependent and T cell‐dependent EAE mouse models ref 9, 10; cited from earlier work
[5] = test system: collagen‐induced arthritis; conditions: collagen‐induced arthritis mouse model ref 8; cited from earlier work

C=CC(=O)N1CCC(CNc2ncnc(N)c2-c2ccc(Oc3ccccc3)cc2)CC1 [evobrutinib]
disease activity [1]: robust reduction in disease activity | Geometric mean Cmax ([2]; 25 mg dose group, day 1, parts 1 and 2 pooled): 86.48 ng/mL | treatment‐emergent T wave morphological abnormalities ([2]; 50 mg and 100 mg dose groups, day 1, 6‐hour and 8‐hour postdose): reported in two evobrutinib‐treated subjects | mean ΔΔQTcF, by‐time point analysis ([2]; 6‐hour postdose): 7.1 ms | mean ΔΔQTcF, by‐time point analysis ([2]; 8‐hour postdose): 5.6 ms | mean ΔΔQTcF range ([2]; 100 mg dose group, three time points): 5.6 to 7.2 ms | Geometric mean Cmax ([2]; 500 mg dose group, day 1): 1,512.3 ng/mL | subjects with change from baseline in QTcF between 30 ms and 60 ms ([2]; 2 of 81 subjects, both in the 200 mg dose group): 2.5% | mean ΔΔQTcF over the range of doses ([2]; all time points, except the 100 mg dose group): < 5 ms | absolute QTcF value ([2]; any dose group, any time point): ≤ 450 ms | Predicted mean ΔΔQTcF ([2]; at geometric mean Cmax of 75 mg dose group): -0.82 ms | Predicted mean ΔΔQTcF ([2]; at geometric mean Cmax of 200 mg dose group): -0.94 ms | Predicted mean ΔΔQTcF ([2]; at geometric mean Cmax of 350 mg dose group): -0.98 ms | Cmax ([2]; 50 mg, 50 mg dose group, day 1): 234 ng/mL | Cmax ([2]; 75 mg, 75 mg dose group, day 1): 254 ng/mL | Cmax ([2]; 100 mg, 100 mg dose group, day 1): 309 ng/mL | Cmax ([2]; 350 mg, 350 mg dose group, day 1): 846 ng/mL | inhibition of B cell and basophil activation [3]: potently inhibits B cell and basophil activation | central nervous system inflammation and disease severity [4]: limited central nervous system inflammation and disease severity | rheumatoid arthritis‐like symptoms [5]: rheumatoid arthritis‐like symptoms were inhibited
